# Molecular target: interaction between ACE-2 receptor and spike S1 protein of SARS-CoV2 (Severe acute respiratory syndrome coronavirus 2, UniProt P0DTC2)
row,Sequence,interaction between ACE-2 receptor and spike S1 protein in presence of peptide
1,DKFNHEAEDLFY [Peptide 4],blocked
2,QTFDKNHEDLYLQAKQLK [Peptide 3],blocked

# Reference: patent publication US20240150398A1, “PEPTIDES AND CONJUGATES THEREOF AS ACE-2 AND S1 SUBUNIT MIMICS AGAINST SEVERE ACUTE RESPIRATORY SYNDROME CORONAVIRUS-2 (SARS-COV2) INFECTION” (priority 2020, published 2024)
